Reference: US11326126B2, “High performing, high impact bloom accord” (International Flavors & Fragrances Inc., priority 2016, dated 2022)

What was measured:
Assay in all cases: Antibacterial activity
Format in all cases: cell-based
e. coli = details: against e. coli
Description: (§1) The fragrance accords can contain antibacterial ingredients described above. See U.S. Pat. No. 6,495,512 for a list of suitable antibacterial ingredients.

e. hirae = details: against e. hirae
Description: as §1

s. aureos = details: against s. aureos
Description: as §1

Measured: antibacterial activity

C=CC(C)(O)CCC=C(C)C (stereo not drawn) [3,7-dimethylocta-1,6-dien-3-ol]
high antibacterial activity: e. coli | e. hirae | s. aureos

COc1ccc(C)cc1 [1-methoxy-4-methylbenzene]
high antibacterial activity: e. coli | e. hirae | s. aureos
